Compared with `COc1ccc(C(=O)Nc2cccc3cnccc23)cc1OC`, `CCOC(=O)/C=C(\c1cccc(C(F)(F)F)c1)c1ccc(OC)c(OC)c1` is lower in melting point: 193 to 194 °C for the first, 72 to 74 °C for the second.

First: O=c1[nH]c2ncc(-c3ccc(-c4nc5ccccc5[nH]4)cc3)nc2n1CC1CCOCC1
Second: COc1ccc(-n2c(-c3cc(-c4ccc(Cl)cc4)c(N4CCOCC4)s3)nc3ccccc3c2=O)cc1
The melting point of the first is higher: over 300 °C for the first, 217 to 218 °C for the second.

Going from `FC(F)(F)c1ccc2c(c1)N(CC1CN3CCC1CC3)c1ccccc1S2` (stereo not drawn) to `O=C(CN1CCN(c2ccccc2)CC1)N1CCC(CNCc2ccco2)(c2cccc(C(F)(F)F)c2)CC1`, the melting point falls from 150 °C to 119 °C.

First: CC(C)CCCC(C)C1CCC2C3CC4(OCCO4)C4CC(O)CCC4(C)C3CCC12C (stereo not drawn)
Second: CC(=O)c1ccc(C2CC(C)(C)CC(C)(C)C2)c(Cl)c1
The melting point of the first is higher: 114 to 115 °C for the first, 64 °C for the second.

Compared with `Cc1cc(C2=CO[C@@](c3cc(Cl)cc(Cl)c3)(C(F)(F)F)C2)ccc1C(=O)NC1CS(=O)(=O)C1`, `Cc1cc(C2(C(F)(F)F)CC(c3ccc(F)cc3)=NO2)ccc1N1C(=O)c2cccc([N+](=O)[O-])c2C1=O` (stereo not drawn) is higher in melting point: 90 to 105 °C for the first, 221 to 222 °C for the second.

First: O=C1Cc2cc(NCCCc3ccccc3)ccc2N1
Second: O=C(CCCN1CCc2ccccc2C1)c1ccc(F)cc1
The melting point of the first is higher: 120 to 122 °C for the first, 69 to 71 °C for the second.

First: CO[C@@H](CCc1nc(-c2ccccc2)oc1C)c1ccc(C=C2SC(=O)NC2=O)cc1
Second: CC(C)c1nc2ccccc2c(-c2ccc(F)cc2)c1CO
The melting point of the first is higher: 205 to 206 °C for the first, 132 to 134 °C for the second.

First: CCOC(=O)CCC(=O)c1ccc(C2CCCCC2)cc1
Second: COCC1OC(=O)NC1c1ccccc1OC(C)(O)C1CCCCC1 (stereo not drawn)
The melting point of the first is lower: 54 to 55 °C for the first, 87 °C for the second.

Compared with `CCC(Cc1c(I)cc(I)c(NC(=O)CN2CCNCCNCCNCC2)c1I)C(=O)O` (stereo not drawn), `CCCc1c2c(cc3c(=O)cc(C(=O)O)oc13)CCCC2` is higher in melting point: 201 °C for the first, 235 °C for the second.

First: COC(=O)C(C#N)(Cc1ccc(-c2cccc(C(F)(F)F)c2)cc1)C(c1ccccc1OC)c1cccc2ccccc12 (stereo not drawn)
Second: Cc1ccc(Nc2nc(-c3ccccc3)c(C(=O)c3sc(Nc4ccc(C)cc4)nc3-c3ccccc3)s2)cc1
The melting point of the first is lower: 202 to 204 °C for the first, over 285 °C for the second.

Compared with `Cc1cc(CN2C(=O)C(C3=NS(=O)(=O)c4c(CN(C)S(C)(=O)=O)cccc43)=C(O)C2C(C)(C)C)ccc1F` (stereo not drawn), `CS(=O)(=O)c1ccc(-c2cnn(CC(F)(F)F)c(=O)c2Nc2cc(F)cc(F)c2F)cc1` is higher in melting point: 105 to 109 °C for the first, 190 to 194 °C for the second.

First: CCCCCCCCCCCCCCOc1ccc(C(=O)Cl)cc1Cl
Second: CCCCCCCCCCCCCCCCCc1nc(N)nc(N)n1
The melting point of the first is lower: 90 °C for the first, 114 to 116 °C for the second.

First: NC(=O)c1ccc(N2CCN(Cc3cn4ccccc4n3)CC2)cc1
Second: NC(=O)C1CCc2ccc(C(=O)c3ccccc3)cc21 (stereo not drawn)
The melting point of the first is higher: 249 to 250 °C for the first, 195 to 197 °C for the second.

First: C#Cc1ccc(C(=O)c2ccc3n2CCC3C(=O)OC)cc1 (stereo not drawn)
Second: Cn1cnc(C(N)=O)c1NC(=S)NC(=O)c1ccccc1
The melting point of the first is lower: 113 to 114 °C for the first, 194 to 196 °C for the second.

Compared with `O=C(OCc1ccccc1[N+](=O)[O-])C(F)(F)C(F)(F)C(F)(F)C(F)(F)C(F)(F)C(F)(F)C(F)(F)F`, `NC(=O)COc1ccc([N+](=O)[O-])cc1` is higher in melting point: 34 to 35 °C for the first, 153 to 155 °C for the second.

First: O=c1n(CCCF)nnn1-c1cc(Oc2ncccn2)c(Cl)cc1F
Second: CCOC(=O)c1cn(-c2ncns2)c2nc(Cl)c(F)cc2c1=O
The melting point of the first is lower: 111 to 113 °C for the first, 203 to 206 °C for the second.

First: COC(=N)Nc1nc(Cl)cc(OC)n1
Second: COc1cc(OC)nc(NC(=O)NS(=O)(=O)c2ccccc2OC(F)(F)F)n1
The melting point of the first is lower: 118 to 120 °C for the first, 170 °C for the second.

Compared with `CCCc1c(O)ccc2oc(C(=O)OCC)cc12`, `COc1ccc(C(=O)SC)c(O)c1` is lower in melting point: 99 to 101 °C for the first, 56 to 57 °C for the second.

Compared with `NC(=O)c1cc(F)c(NC2CCNCC2)cc1F`, `COC(=O)c1cc(Cl)cc(O)c1O` is lower in melting point: 188 to 190 °C for the first, 102 °C for the second.

Compared with `Cn1cc(-c2ccccc2)c(=O)c(-c2cccc(I)c2)c1`, `CSc1ncc(Br)c(P(=O)(c2ccccc2)c2ccccc2)n1` is lower in melting point: 190 to 193 °C for the first, 124 to 127 °C for the second.

Compared with `CCOc1cnc(C2=NC(=O)C(C)(C(C)C)N2)c(C(=O)O)c1` (stereo not drawn), `CCN1C(=O)N(c2cccc(C#N)c2C(F)(F)F)C(=O)C1(C)COC(=O)C(C)C` (stereo not drawn) is lower in melting point: 140 to 144 °C for the first, 85 °C for the second.

First: C#CCNc1ccc([N+](=O)[O-])cc1[N+](=O)[O-]
Second: N=C(NS(=O)(=O)C=Cc1ccc([N+](=O)[O-])cc1)c1ccccc1
The melting point of the first is lower: 151 to 152 °C for the first, 173 to 175 °C for the second.

Compared with `O=C(O)COc1ccc(C(F)(F)F)cc1C(=O)NCc1ccc(Br)cc1F`, `CC(=O)Nc1nc2c(Oc3cc(-c4ccc(C(F)(F)F)cc4Br)ncn3)cccc2s1` is higher in melting point: 169 to 170 °C for the first, 260 °C for the second.

First: CC(C)N1NN=C(c2cn(C)c3ccccc3c2=O)N1
Second: CCN(CC)c1nc2ccccc2n2c(C(C)C)nnc12
The melting point of the first is higher: 134 to 137 °C for the first, 93 to 95 °C for the second.

Compared with `CCCc1c(COc2ccc(Cc3nnn(Cc4ccc(-c5nnn[nH]5)cc4)n3)cc2)ccc(C(C)=O)c1O`, `CCC1CC(=O)N(CCc2ccc(NC(=O)c3cccs3)cc2)N=C1c1ccc(OC)c(OC)c1` (stereo not drawn) is higher in melting point: 86 to 88 °C for the first, 186 °C for the second.

Compared with `CC(C)(C)C(=O)c1sc(NC(=O)c2ccncc2)nc1-c1ccco1`, `O=C(Nc1nccs1)c1cnc2c(C(F)(F)F)cccc2c1O` is higher in melting point: 240 to 245 °C for the first, 325 °C for the second.

First: NC(=O)c1ccc(-c2cccc3cc(Cc4cccc(C(F)(F)F)c4)sc23)cn1
Second: N#CCCNC(=O)c1cc(F)cc(-c2cccc3cc(Cc4cc(F)cc(Cl)c4)sc23)c1
The melting point of the first is higher: 144 to 145 °C for the first, 113 to 114 °C for the second.

First: CCOC(=O)C1Cc2c(ccc(OC)c2OCc2ccccc2)CN1C(=O)C(c1ccccc1)c1ccccc1 (racemic)
Second: Cc1c2n(c3ccccc13)C(=O)C(C(O)c1cn(C(c3ccccc3)(c3ccccc3)c3ccccc3)c(C)n1)CC2 (stereo not drawn)
The melting point of the first is lower: 111 to 113 °C for the first, 135 to 136 °C for the second.

First: CC(C)(N=C=O)c1ccc2cc(C(C)(C)N=C=O)ccc2c1
Second: COC(=O)/C=C/c1ccc(OCc2oc(-c3ccc(C(F)(F)F)cc3)nc2C)cc1C
The melting point of the first is lower: 85.5 to 87 °C for the first, 124 to 126 °C for the second.

First: CC(C)c1nccn1-c1nc(-c2ccc(Cl)cc2)c(CCC(=O)O)o1
Second: O=C(O)CCc1ccc(SCc2coc(/C=C/c3ccccc3)n2)cc1
The melting point of the first is higher: 173 to 174 °C for the first, 120 to 121 °C for the second.

Going from `FC(F)(F)c1ccc(-c2cc(C(F)(F)F)n3ncc(Br)c3n2)cc1` to `CC(C)CN(C)S(=O)(=O)c1cccc(-c2cc(-c3nc(-c4ccc(C(F)(F)F)cc4)cc(C(F)(F)F)n3)ccn2)c1`, the melting point rises from 136 °C to 144 °C.

Compared with `COc1ccc(-c2ccc3[nH]c4ncc(Cl)cc4c3c2)cc1`, `Nc1cccc(Oc2ccc(-c3ccc(Oc4cccc(N)c4)cc3)cc2)c1` is lower in melting point: over 220 °C for the first, 144 to 146 °C for the second.

First: Cn1ccc2cc(N3Cc4ccc(O)cc4C3=O)ccc21
Second: CCn1ncc2cc3c(nc21)CCc1ccccc1C3=O
The melting point of the first is higher: 230 to 235 °C for the first, 88 to 90 °C for the second.

First: Cc1c(S(=O)(=O)c2ccc(=O)[nH]n2)sc2ccc(Cl)cc12
Second: COc1cc(OC)nc(Sc2ccnc3cc(Cl)ccc23)n1
The melting point of the first is higher: 258 to 259 °C for the first, 93 to 94.5 °C for the second.

First: CCCc1nc2c(N)nc3cccnc3c2s1
Second: Cc1nc(C#Cc2ccccc2)sc1C
The melting point of the first is higher: 135 to 136 °C for the first, 55 to 60 °C for the second.

First: COc1cccc2c1c(S(N)(=O)=O)nn2C
Second: COc1ccc2c(c1)C(=O)C(Br)=C(Br)C2=O
The melting point of the first is higher: 268 to 270 °C for the first, 146 to 148 °C for the second.

Compared with `Cc1cnc2c(C#N)cnn2c1`, `Cc1ncnc(-c2cc([N+](=O)[O-])c(C#N)cc2F)c1Cl` is lower in melting point: 193 to 194 °C for the first, 123 to 125 °C for the second.

Compared with `O=C(OCc1ccccc1)c1ncoc1CCNC(=O)[C@H](O)Cc1ccccc1`, `CC(C)c1nc(CN(C(=O)N[C@H](C(=O)N[C@@H](Cc2ccccc2)C[C@H](O)[C@H](Cc2ccccc2)NC(=O)OCc2cncs2)C(C)C)C2CC2)cs1` is lower in melting point: 106 to 108 °C for the first, 65 to 66 °C for the second.

First: CN1C(=O)C(CN2CCCCC2)CC1C1CC1c1ccccc1Cl (stereo not drawn)
Second: CC(C)CC(SC1CCCC1)c1c(O)cc(-c2ccccc2)oc1=O (stereo not drawn)
The melting point of the first is lower: 87 to 90 °C for the first, 146 to 149 °C for the second.

First: C[C@H](Cc1cc2c(c(C(N)=O)c1)N(CCCCOCc1ccccc1)CC2)NCCOc1ccccc1OCC(F)(F)F
Second: C[Si](C)(C)C#Cc1ccc2c(c1)C(c1ccccc1)=NCc1c(C(=O)OCC(F)(F)F)ncn1-2
The melting point of the first is lower: 101 to 102 °C for the first, 107 to 110 °C for the second.

Compared with `Cc1cc(C)cc(Sc2c(C(C)C)c(=O)[nH]c(=O)n2CCC2C=CCC2)c1` (stereo not drawn), `CC1=CC(=O)N(c2cc(-n3c(=O)n(C)c(=O)n(CC(=O)OC(C)C)c3=O)c(Cl)cc2F)C1=O` is lower in melting point: 138 to 140 °C for the first, 110 to 120 °C for the second.

First: CCOC(=O)CNC(=O)c1cccs1
Second: Cc1cccc(C(=O)Nc2c[nH]nc2C(=O)NCCC#N)c1
The melting point of the first is lower: 82 to 83 °C for the first, 149 to 151 °C for the second.

First: CC(=O)Nc1ccc(Br)c2c1CCCC2
Second: CN1CCCc2cc(CC3SC(=O)NC3=O)ccc21 (stereo not drawn)
The melting point of the first is higher: 185 to 189 °C for the first, 122 to 125 °C for the second.

Compared with `COc1nsc2c1C(=O)CCC2`, `Cn1c2c(c3ccc(F)cc31)C(=O)CCC2` is higher in melting point: 45 to 46 °C for the first, 174 to 175 °C for the second.

Compared with `CC(C)(C)c1csc(-c2cc3cc(Cc4nc(-c5ccccc5)c(CC(=O)O)s4)ccc3o2)n1`, `CC(C)(C)c1ccc(CO)cc1NC(=O)CC1c2ccccc2Oc2ccccc21` is lower in melting point: 174 to 180 °C for the first, 137 to 138 °C for the second.

Compared with `Cc1ccc(-c2ccc3c(c2)C=C(C(=O)Nc2ccc(C(O)CN4CCCCC4)cc2)CCO3)cc1` (stereo not drawn), `CN1CCN(CCc2ccc(Nc3ncc4c(n3)-c3ccccc3C(c3cccc(Br)c3)C4)cc2)CC1` (stereo not drawn) is lower in melting point: 212 to 213 °C for the first, 100 to 102 °C for the second.

First: O=C(/C=C/c1ccc2ccccc2c1)N1CCN(Cc2cccc(CN3CCN(C(=O)/C=C/c4ccc5ccccc5c4)CC3)n2)CC1
Second: Cc1ccccc1CCCc1c(C(C)C)nc(C(C)C)c(CO)c1-c1ccc(F)cc1
The melting point of the first is higher: 200 to 202 °C for the first, 65 to 70 °C for the second.

Compared with `COc1cnn(C2CCCCO2)c(=O)c1` (stereo not drawn), `CCN1CCC(c2cccc(C(F)(F)F)c2)(C(C)(C)O)CC1` is higher in melting point: 76 to 78 °C for the first, 110 °C for the second.

First: O=C1c2ccccc2C(=O)N1CCCCc1ccco1
Second: O=C(CCCCCCCCc1ccc(Cl)cc1)NO
The melting point of the first is higher: 61 to 63 °C for the first, 48 to 50 °C for the second.

Reference: a melting point compilation (Tetko et al.; mined from patent text by program, amines drawn as free bases though some values may be those of a salt)
